Columns and labels:
[1] = tested on: K1 strain, a drug resistant strain of Plasmodium falciparum; assay: In vitro antimalarial assay (p-LDH, Malstat), K1 strain; assay type: cell-based; conditions: P. falciparum K1 (drug resistant), 72 h culture, p-LDH readout, read-out: Antimalarial activity (IC50 value), Strain K1
Outline: (§1)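 IC50 derived from concentration-response of parasite lactate dehydrogenase signal (Malstat reagent, NBT/PES formazan at 655 nm) after freeze-thaw lysis. Infected erythrocytes (hematocrit 2%, parasitaemia 0.5 or 1%) exposed 72 h to 12.5–0.0001 μM final compound under 3% O2-4% CO2-93% N2, FCR3 and K1 alike.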

[2] = tested on: FCR3 strain, a drug sensitive strain of Plasmodium falciparum; assay: In vitro antimalarial assay (p-LDH, Malstat), FCR3 strain; assay type: cell-based; conditions: P. falciparum FCR3 (drug sensitive), 72 h culture, p-LDH readout, read-out: Antimalarial activity (IC50 value), Strain FCR3
Outline: as §1

Row | Structure (SMILES) | IC50 [1] [nM] | IC50 [2] [nM]
1 | FC(F)(F)COc1ccc(Nc2nc(Nc3ccn4ccnc4c3)cc(N3CCOCC3)n2)cn1 [Example 77, N4-(imidazo[1,2-a]pyridin-7-yl)-6-morpholino-N2-(6-(2,2,2-trifluoroethoxy)pyridin-3-yl) pyrimidine-2,4-diamine] | 100 to 1000 | < 100
2 | Cc1ccc(Nc2nc(Nc3ccn4ccnc4c3)cc(N3CCOCC3)n2)nc1C [Example 87, N2-(5,6-dimethylpyridin-2-yl)-N4-(imidazo[1,2-a]pyridin-7-yl)-6-morpholinopyrimidine-2,4-diamine] | < 100 | < 100
3 | c1ccc(COc2ccc(Nc3nc(Nc4ccn5ccnc5c4)cc(N4CCOCC4)n3)cn2)cc1 [Example 91, N2-(6-(benzyloxy)pyridin-3-yl)-N4-(imidazo[1,2-a]pyridin-7-yl)-6-morpholinopyrimidine-2,4-diamine] | 100 to 1000 | < 100
4 | Cc1cccc(Nc2nc(N)cc(Nc3ccn4ccnc4c3)n2)n1 [Example 54, N4-(Imidazo[1,2-a]pyridin-7-yl)-N2-(6-methylpyridin-2-yl) pyrimidine-2,4,6-triamine] | < 100 | < 100
5 | CCc1ccnc(Nc2nc(Nc3ccn4ccnc4c3)cc(N3CCC(C)CC3)n2)c1 [Example 98, N2-(4-ethylpyridin-2-yl)-N4-(imidazo[1,2-a]pyridin-7-yl)-6-(4-methylpiperidin-1-yl)pyrimidine-2,4-diamine] | 100 to 1000 | 100 to 1000
6 | CC(C)(C)Oc1ccc(Nc2nc(Nc3ccn4ccnc4c3)cc(N3CCOCC3)n2)cn1 [Example 63, N2-(6-(tert-butoxy)pyridin-3-yl)-N4-(imidazo[1,2-a]pyridin-7-yl)-6-morpholinopyrimidine-2,4-diamine] | 100 to 1000 | 100 to 1000
7 | CCc1ccnc(Nc2nc(Nc3ccn4ccnc4c3)cc(N3CCCCCC3)n2)c1 [Example 92, 6-(azepan-1-yl)-N2-(4-ethylpyridin-2-yl)-N4-(imidazo[1,2-a]pyridin-7-yl)pyrimidine-2,4-diamine] | < 100 | < 100
8 | CCc1ccnc(Nc2nc(Nc3ccn4ccnc4c3)cc(N3CCCCC3)n2)c1 [Example 71, N2-(4-ethylpyridin-2-yl)-N4-(imidazo[1,2-a]pyridin-7-yl)-6-(piperidin-1-yl)pyrimidine-2,4-diamine] | < 100 | < 100
9 | Fc1ncccc1Nc1nc(Nc2ccn3ccnc3c2)cc(N2CCOCC2)n1 [Example 11, N2-(2-Fluoropyridin-3-yl)-N4-(imidazo[1,2-a]pyridin-7-yl)-6-morpholinopyrimidine-2,4-diamine] | 1000 to 10000 | 100 to 1000
10 | CCCCOc1ccc(Nc2nc(Nc3ccn4ccnc4c3)cc(N3CCOCC3)n2)cn1 [Example 62, N2-(6-butoxypyridin-3-yl)-N4-(imidazo[1,2-a]pyridin-7-yl)-6-morpholinopyrimidine-2,4-diamine] | 100 to 1000 | 100 to 1000
11 | CN1CCC(Oc2ccc(Nc3nc(Nc4ccn5ccnc5c4)cc(N4CCOCC4)n3)cn2)CC1 [Example 89, N4-(imidazo[1,2-a]pyridin-7-yl)-N2-(6-((1-methylpiperidin-4-yl)oxy)pyridin-3-yl)-6-morpholinopyrimidine-2,4-diamine] | 100 to 1000 | < 100
12 | Cc1cc(C)nc(Nc2nc(Nc3ccn4ccnc4c3)cc(N(C)C)n2)c1 [Example 84, N2-(4,6-dimethylpyridin-2-yl)-N4-(imidazo[1,2-a]pyridin-7-yl)-N6,N6-dimethylpyrimidine-2,4,6-triamine] | < 100 | < 100
13 | Cc1ccnc(Nc2nc(Nc3ccn4ccnc4c3)cc(N3CCN(C)CC3)n2)c1 [Example 25, N4-(imidazo[1,2-a]pyridin-7-yl)-6-(4-methylpiperazin-l-yl)-N 2-(4-methylpyridin-2-yl)pyrimidine-2,4-diamine] | 1000 to 10000 | 1000 to 10000
14 | Cc1ccnc(Nc2nc(Nc3ccn4ccnc4c3)cc(N3CCOCC3)n2)c1 [Example 17, N4-(Imidazo[1,2-a]pyridin-7-yl)-N2-(4-methylpyridin-2-yl)-6-morpholinopyrimidine-2,4-diamine] | < 100 | < 100

The next lines start with the values.

Row | IC50 [1] [nM] | IC50 [2] [nM] | Structure (SMILES)
15 | 100 to 1000 | 100 to 1000 | CCCCc1cc(CC)cc(Nc2nc(Nc3ccn4ccnc4c3)cc(N3CCCCC3)n2)n1 [Example 201, N2-(6-butyl-4-ethylpyridin-2-yl)-N4-(imidazo[1,2-a]pyridin-7-yl)-6-(piperidin-1-yl) pyrimidine-2,4-diamine]
16 | < 100 | < 100 | Cc1cc(C)nc(Nc2nc(Nc3ccn4ccnc4c3)cc(N3CC(C)(C)C3)n2)c1 [Example 177, 6-(3,3-dimethylazetidin-1-yl)-N2-(4,6-dimethylpyridin-2-yl)-N4-(imidazo[1,2-a]pyridin-7-yl)pyrimidine-2,4-diamine]
17 | < 100 | < 100 | Cc1cc(C)nc(Nc2nc(Nc3ccn4ccnc4c3)cc(N3CCC(N(C)C)C3)n2)c1 (stereo not drawn) [Example 137, 6-(3-(dimethylamino)pyrrolidin-1-yl)-N2-(4,6-dimethylpyridin-2-yl)-N4-(imidazo[1,2-a]pyridin-7-yl)pyrimidine-2,4-diamine]
18 | 100 to 1000 | 100 to 1000 | Cc1nc(Nc2nc(Nc3ccn4ccnc4c3)cc(N3CCCCC3)n2)ccc1F [Example 202, N2-(5-fluoro-6-methylpyridin-2-yl)-N4-(imidazo[1,2-a]pyridin-7-yl)-6-(piperidin-1-yl) pyrimidine-2,4-diamine]
19 | < 100 | < 100 | COCCOc1cccc(Nc2nc(Nc3ccn4ccnc4c3)cc(N3CCCC3)n2)n1 [Example 152, N4-(imidazo[1,2-a]pyridin-7-yl)-N2-[6-(2-methoxyethoxy)pyridin-2-yl]-6-(pyrrolidin-1-yl)pyrimidine-2,4-diamine]
20 | < 100 | < 100 | Cc1cc(C)nc(Nc2nc(Nc3ccn4ccnc4c3)cc(N3CCC(N4CCCCC4)CC3)n2)c1 [Example 133, 6-([1,4′-bipiperidin]-1′-yl)-N2-(4,6-dimethylpyridin-2-yl)-N4-(imidazo[1,2-a]pyridin-7-yl)pyrimidine-2,4-diamine]
21 | < 100 | < 100 | Cc1cc(C)nc(Nc2nc(Nc3ccn4ccnc4c3)cc(N3CC[C@H](F)C3)n2)c1 [Example 185, (S)-N2-(4,6-dimethylpyridin-2-yl)-6-(3-fluoropyrrolidin-1-yl)-N4-(imidazo[1,2-a]pyridin-7-yl) pyrimidine-2,4-diamine]
22 | < 100 | < 100 | Cc1cc(C)nc(Nc2nc(Nc3ccn4ccnc4c3)cc(N3CCC(N(C)C)CC3)n2)c1 [Example 134, 6-(4-(dimethylamino)piperidin-1-yl)-N2-(4,6-dimethylpyridin-2-yl)-N4-(imidazo[1,2-a]pyridin-7-yl)pyrimidine-2,4-diamine]
23 | 100 to 1000 | < 100 | CC(C)(C)Cc1cccc(Nc2nc(Nc3ccn4ccnc4c3)cc(N3CCCC3)n2)n1 [Example 162, N4-(imidazo[1,2-a]pyridin-7-yl)-N2-(6-neopentylpyridin-2-yl)-6-(pyrrolidin-1-yl)pyrimidine-2,4-diamine]
24 | 100 to 1000 | 100 to 1000 | COc1ccnc(Nc2nc(Nc3ccn4ccnc4c3)cc(N3CCC(C)(C)C3)n2)c1 [Example 209, 6-(3,3-dimethylpyrrolidin-1-yl)-N4-(imidazo[1,2-a]pyridin-7-yl)-N2-(4-methoxypyridin-2-yl) pyrimidine-2,4-diamine]
